In patent US12612410B2 (CHILDREN'S HOSPITAL MEDICAL CENTER, priority 2020, dated 2026):

Assays:
IRAK1 = target: T1, IRAK1 (Homo sapiens, UniProt P51617); experiment: RBC HotSpot Kinase Assay, IRAK1; assay type: biochemical; settings: isolated kinase, 33P-ATP
T1 construct: purchased Reaction Biology (RBC), HotSpot kinase assay
Source text: (§1) This assay uses the isolated kinase enzyme. This assay is very useful for determining competition of the inhibitor for ATP and/or substrates and for measuring the kinetics of enzyme inhibition. […] Unlike kinase binding assays that measure competition for ATP, the HotSpot Kinase Assay is a functional assay that measures catalytic activity; as such it measures relative functional potency regardless of the mechanism of enzyme inhibition. This assay uses the form of the various enzymes that are easiest to express, which may not necessarily be the form of the enzyme that exist in the cell. (Sometimes the carboxy terminus has been truncated to aid in expression, or, if it is a receptor kinase, the enzyme itself is isolated from the other parts of the receptor that are involved in regulating kinase activity.)
(§2) The reagent used was as follows: Base Reaction buffer; 20 mM Hepes (pH 7.5), 10 mM MgCl2, 1 mM EGTA, 0.01% Brij35, 0.02 mg/ml BSA, 0.1 mM Na3VO4, 2 mM DTT, 1% DMSO. Required cofactors were added individually to each kinase reaction.
(§3) The reaction procedure was as follows: • 1) Substrates were prepared in freshly prepared Reaction Buffer. • 2) Any required cofactors were delivered to the substrate solution above. • 3) Kinase was delivered into the substrate solution and gently mixed. • 4) Compounds were delivered in 100% DMSO into the kinase reaction mixture by Acoustic technology (Echo550; nanoliter range), followed by incubation for 20 min at room temp. • 5)^33P-ATP was delivered into the reaction mixture to initiate the reaction. • 6) The mixture was incubated for 2 hours at room temperature. • 7) Kinase activity was detected by P81 filter-binding method.

MOLM14 D835Y cells = experiment: MOLM14 D835Y cell viability assay (Cell Titer Glo); assay type: cell-based; settings: Homo sapiens, MOLM-14, 48 h
Experimental: Both cell lines have activated FLT3 receptors, each of which carry additional resistance mutations in the kinase domain (D835Y and F691L, respectively).
MOLM14 D835Y and MOLM14 F691L cells were grown in RPMI-1640 media supplemented with 20% fetal bovine serum (FBS). For viability/cytotoxicity assessments, cells were seeded into 1536-well white polystyrene tissue culture-treated Greiner plates using a Multidrop Combi dispenser (ThermoFisher), in final volume 5 μL of growth media per well, at a density of 1000 cells per well. After cell addition, 23 nL of test compound were transferred into individual wells (22 doses tested for each test compound, with a 1:2 dilution series starting at 10 μM) via a 1536 pin-tool. Bortezomib (final concentration 2.3 μM) was used as a positive control for cell cytotoxicity. Plates were incubated for 48 hours at standard incubator conditions covered by a stainless steel gasketed lid to prevent evaporation. 48 hours post compound addition, 3 μL of Cell Titer Glo (Promega) were added to each well and plates were incubated at room temperature for 15 minutes with the stainless-steel lid in place. Luminescence readings were taken using a Viewlux imager (PerkinElmer) with a 2 second exposure time per plate.

FLT3 = target: T2, FLT3 (Homo sapiens, UniProt P36888); experiment: RBC HotSpot Kinase Assay, FLT3; assay type: biochemical; set-up: purchased Reaction Biology (RBC), HotSpot kinase assay; settings: isolated kinase, 33P-ATP
T2 sequence (P36888 27-993): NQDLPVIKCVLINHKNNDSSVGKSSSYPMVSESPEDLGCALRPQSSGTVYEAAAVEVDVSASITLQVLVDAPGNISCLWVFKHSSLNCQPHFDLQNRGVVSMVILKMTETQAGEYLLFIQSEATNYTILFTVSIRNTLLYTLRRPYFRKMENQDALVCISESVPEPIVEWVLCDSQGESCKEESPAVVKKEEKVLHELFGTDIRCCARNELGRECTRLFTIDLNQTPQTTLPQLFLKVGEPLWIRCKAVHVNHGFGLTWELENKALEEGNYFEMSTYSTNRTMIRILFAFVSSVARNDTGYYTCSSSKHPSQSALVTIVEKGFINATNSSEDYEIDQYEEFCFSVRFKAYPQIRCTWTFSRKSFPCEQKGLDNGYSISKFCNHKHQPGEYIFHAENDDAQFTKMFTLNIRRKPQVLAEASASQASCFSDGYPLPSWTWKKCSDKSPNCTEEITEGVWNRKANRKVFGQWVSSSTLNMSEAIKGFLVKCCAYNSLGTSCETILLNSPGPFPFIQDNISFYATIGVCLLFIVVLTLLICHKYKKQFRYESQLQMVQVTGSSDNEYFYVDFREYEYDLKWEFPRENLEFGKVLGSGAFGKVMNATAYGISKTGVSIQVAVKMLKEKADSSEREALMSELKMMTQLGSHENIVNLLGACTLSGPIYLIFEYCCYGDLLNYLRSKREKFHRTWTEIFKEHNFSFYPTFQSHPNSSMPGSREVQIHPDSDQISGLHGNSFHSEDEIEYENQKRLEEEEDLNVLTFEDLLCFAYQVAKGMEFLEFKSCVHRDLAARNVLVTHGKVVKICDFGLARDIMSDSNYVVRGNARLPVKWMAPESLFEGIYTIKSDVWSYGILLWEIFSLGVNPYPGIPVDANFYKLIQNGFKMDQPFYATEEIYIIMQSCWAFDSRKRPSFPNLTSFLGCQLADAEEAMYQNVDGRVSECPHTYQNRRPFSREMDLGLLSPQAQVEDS
Source text: as §1, §2, §3

IRAK4 = target: T3, IRAK4 (Homo sapiens, UniProt Q9NWZ3); experiment: RBC HotSpot Kinase Assay, IRAK4; assay type: biochemical; set-up: purchased Reaction Biology (RBC), HotSpot kinase assay; settings: isolated kinase, 33P-ATP
T3 sequence (Q9NWZ3 1-460): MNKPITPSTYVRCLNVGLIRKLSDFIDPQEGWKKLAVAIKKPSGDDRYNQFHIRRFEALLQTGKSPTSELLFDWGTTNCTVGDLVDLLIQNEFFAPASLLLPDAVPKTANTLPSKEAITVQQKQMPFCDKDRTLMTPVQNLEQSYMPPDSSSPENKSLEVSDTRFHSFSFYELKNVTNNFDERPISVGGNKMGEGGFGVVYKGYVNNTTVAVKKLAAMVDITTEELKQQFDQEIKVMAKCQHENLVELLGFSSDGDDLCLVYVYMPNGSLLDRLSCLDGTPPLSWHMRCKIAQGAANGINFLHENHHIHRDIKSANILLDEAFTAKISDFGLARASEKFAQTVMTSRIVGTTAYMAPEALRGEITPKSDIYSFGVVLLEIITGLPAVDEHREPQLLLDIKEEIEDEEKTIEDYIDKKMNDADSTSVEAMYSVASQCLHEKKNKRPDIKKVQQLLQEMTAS
Source text: as §1, §2, §3

T1 sequence (P51617 whole entry): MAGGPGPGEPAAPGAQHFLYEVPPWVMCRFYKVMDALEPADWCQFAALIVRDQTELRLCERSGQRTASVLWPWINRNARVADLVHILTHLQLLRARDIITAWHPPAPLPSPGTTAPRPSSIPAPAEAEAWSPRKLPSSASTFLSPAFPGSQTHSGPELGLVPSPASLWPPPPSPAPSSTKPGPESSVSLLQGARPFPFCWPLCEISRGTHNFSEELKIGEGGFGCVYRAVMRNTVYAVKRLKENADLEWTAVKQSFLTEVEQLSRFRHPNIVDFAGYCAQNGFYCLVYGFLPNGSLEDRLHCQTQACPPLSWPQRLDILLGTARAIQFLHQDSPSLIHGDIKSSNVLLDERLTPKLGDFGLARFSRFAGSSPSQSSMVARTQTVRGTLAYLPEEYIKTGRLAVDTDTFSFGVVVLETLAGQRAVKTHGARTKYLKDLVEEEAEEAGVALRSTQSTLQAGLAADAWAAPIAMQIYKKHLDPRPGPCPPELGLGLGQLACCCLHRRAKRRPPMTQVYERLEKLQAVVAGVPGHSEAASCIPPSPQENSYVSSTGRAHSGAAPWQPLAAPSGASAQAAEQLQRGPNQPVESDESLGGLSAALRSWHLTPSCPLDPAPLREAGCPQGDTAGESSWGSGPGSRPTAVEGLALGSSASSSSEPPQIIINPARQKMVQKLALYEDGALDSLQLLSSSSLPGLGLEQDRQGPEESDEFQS

Row | SMILES | IC50 (IRAK1) [nM] | IC50 (MOLM14 D835Y cells) [nM] | IC50 (FLT3) [nM] | IC50 (IRAK4) [nM]
1 | C[C@H]1CNC[C@@H]1Nc1cccc(-c2cnc3cnc(C4(C(F)(F)F)CC4)cn23)n1 [Compound 11, N-((3R,4S)-4-methylpyrrolidin-3-yl)-6-(6-(1-(trifluoromethyl)cyclopropyl)imidazo[1,2-a]pyrazin-3-yl)pyridin-2-amine] | 301 | 15 | < 0.5 | 3
2 | FC(F)c1cn2c(-c3cccc(N[C@@H]4CCNC4)n3)cnc2cn1 [Compound 18, (R)-6-(6-(difluoromethyl)imidazo[1,2-a]pyrazin-3-yl)-N-(pyrrolidin-3-yl)pyridin-2-amine] | 82 | 14 | < 0.5 | 1
3 | C[C@H]1CNC[C@@H]1Nc1cccc(-c2cnc3cnc(C(C)(C)O)cn23)n1 [Compound 29, 2-(3-(6-(((3R,4S)-4-methylpyrrolidin-3-yl)amino)pyridin-2-yl)imidazo[1,2-a]pyrazin-6-yl)propan-2-ol] | 273 | 42 | 0.6 | 1
4 | CC(C)(O)Cn1cc(-c2cn3c(-c4cccc(N[C@H]5CNC[C@@H]5F)n4)cnc3cn2)cn1 [Compound 54, 1-(4-(3-(6-(((3S,4S)-4-fluoropyrrolidin-3-yl)amino)pyridin-2-yl)imidazo[1,2-a]pyrazin-6-yl)-1H-pyrazol-1-yl)-2-methylpropan-2-ol] | 2290 |  | < 0.5 | 5
5 | F[C@H]1CNC[C@@H]1Nc1cccc(-c2cnc3cnc(-c4cnn5ccccc45)cn23)n1 [Compound 55, N-((3S,4S)-4-fluoropyrrolidin-3-yl)-6-(6-(pyrazolo[1,5-a]pyridin-3-yl)imidazo[1,2-a]pyrazin-3-yl)pyridin-2-amine] | 304 |  | < 0.5 | < 0.5
6 | COc1cn2c(-c3cccc(N[C@H]4CNC[C@@H]4F)n3)cnc2cn1 [Compound 56, N-((3S,4S)-4-fluoropyrrolidin-3-yl)-6-(6-methoxyimidazo[1,2-a]pyrazin-3-yl)pyridin-2-amine] | 840 |  | 0.7 | 4
7 | CC1(C)CCN(c2cn3c(-c4cccc(N[C@H]5CNC[C@@H]5F)n4)cnc3cn2)C1=O [Compound 61, 1-(3-(6-(((3S,4S)-4-fluoropyrrolidin-3-yl)amino)pyridin-2-yl)imidazo[1,2-a]pyrazin-6-yl)-3,3-dimethylpyrrolidin-2-one] | 3540 |  | 2 | 46
8 | CC1(C)CC(=O)N(c2cn3c(-c4cccc(N[C@H]5CNC[C@@H]5F)n4)cnc3cn2)C1 [Compound 63, 1-(3-(6-(((3S,4S)-4-fluoropyrrolidin-3-yl)amino)pyridin-2-yl)imidazo[1,2-a]pyrazin-6-yl)-4,4-dimethylpyrrolidin-2-one] | 3430 |  | < 0.5 | 238
9 | OC1(C(F)(F)F)CCN(c2cn3c(-c4cccc(N[C@H]5CNC[C@@H]5F)n4)cnc3cn2)C1 (stereo partly drawn) [Compound 66, 1-(3-(6-(((3S,4S)-4-fluoropyrrolidin-3-yl)amino)pyridin-2-yl)imidazo[1,2-a]pyrazin-6-yl)-3-(trifluoromethyl)pyrrolidin-3-ol] | 6020 |  | 1 | 4
10 | F[C@H]1CNC[C@@H]1Nc1cccc(-c2cnc3cnc(N4CCC(F)(F)C4)cn23)n1 [Compound 67, 6-(6-(3,3-difluoropyrrolidin-1-yl)imidazo[1,2-a]pyrazin-3-yl)-N-((3S,4S)-4-fluoropyrrolidin-3-yl)pyridin-2-amine] | 8190 |  | 0.7 | 4
11 | c1cc(N[C@@H]2CCCNC2)nc(-c2cnc3cnccn23)c1 [Compound 69, (R)-6-(imidazo[1,2-a]pyrazin-3-yl)-N-(piperidin-3-yl)pyridin-2-amine] | 2030 |  | < 0.5 | 15
12 | F[C@H]1CCNC[C@@H]1Nc1cccc(-c2cnc3cnccn23)n1 [Compound 70, N-((3S,4S)-4-fluoropiperidin-3-yl)-6-(imidazo[1,2-a]pyrazin-3-yl)pyridin-2-amine] | 696 |  | < 0.5 | 20
13 | c1cc(N[C@H]2CNCC23CC3)nc(-c2cnc3cnccn23)c1 [Compound 71, (R)-N-(6-(imidazo[1,2-a]pyrazin-3-yl)pyridin-2-yl)-5-azaspiro[2.4]heptan-7-amine] | 966 |  | < 0.5 | 2
14 | CC1(C)CNCC1Nc1cccc(-c2cnc3cnccn23)n1 (stereo not drawn) [Compound 72] | 4190 |  | < 0.5 | 14
15 | C[C@H]1CNC[C@@H]1Nc1cccc(-c2cnc3cnccn23)n1 [Compound 73, 6-(imidazo[1,2-a]pyrazin-3-yl)-N-((3R,4S)-4-methylpyrrolidin-3-yl)pyridin-2-amine] | 622 |  | < 0.5 | 2
16 | CC1(C)CCNCC1Nc1cccc(-c2cnc3cnccn23)n1 (stereo not drawn) [Compound 74, N-(4,4-dimethylpiperidin-3-yl)-6-(imidazo[1,2-a]pyrazin-3-yl)pyridin-2-amine] | 4780 |  | < 0.5 | 14
17 | CCOc1cn2c(-c3cccc(N[C@H]4CNC[C@@H]4F)n3)cnc2cn1 [compound 57, 6-(6-ethoxyimidazo[1,2-a]pyrazin-3-yl)-N-((3S,4S)-4-fluoropyrrolidin-3-yl)pyridin-2-amine] | 165 |  | < 0.5 | 2
18 | O=C1CC2(COC2)CN1c1cn2c(-c3cccc(N[C@H]4CNC[C@@H]4F)n3)cnc2cn1 [compound 62, 6-(3-(6-(((3S,4S)-4-fluoropyrrolidin-3-yl)amino)pyridin-2-yl)imidazo[1,2-a]pyrazin-6-yl)-2-oxa-6-azaspiro[3.4]octan-7-one] | 7010 |  | < 0.5 | 86
